How the values were obtained:
[1] = system: aquaglyceroporin 7; test: Immuno-detection of aquaglyceroporin 7 expression in differentiated 3T3-L1 adipocyte cells; format: cell-based; conditions: differentiated 3T3-L1 cells; with respect to untreated control; carob extract 1% daily for 12 days, caffeine 2 mM for 5 hours
Procedure: 3T3-L1 adipocyte cells are cultivated in a DMEM medium with 4.5 g/l glucose, 2 mM glutamine and 10% fetal bovine serum. Two days after the cell confluence phase, the differentiation of 3T3-L1 cells into adipocytes is induced by adding a solution of 0.5 mM of IBMX, 1 μM of dexamethasone and 10 μg/ml of insulin (Sigma, St. Louis, Mo., USA) in the culture medium for 3 days. Then, only the insulin is kept for 3 to 4 days of additional culture. The cells are then kept in culture, in a standard medium, for another 3 days. The treatment is performed from the start of the differentiation induction phase by a daily application, for 12 days, of 1×PBS (Lonza, Rockland, Me., USA) for the untreated control, carob germ extract with a dry weight of 2.5 g/kg as obtained in example 1, diluted to 1% in PBS, or carob germ extract as obtained in example 1, diluted to 1% in PBS and to which 2 mM of caffeine is added for the last 5 hours of the treatment. A 5-hour treatment with 2 mM of caffeine was also performed. […] The cell membranes are permeabilized with acetone for 4 minutes at -20° C. The non-specific sites are saturated with 3% bovine serum albumin (Sigma-Aldrich, […], Germany) for 15 minutes. […] Three images for each condition are analyzed using the Image-Pro Analyzer 6.3 software. […]

[2] = system: differentiated 3T3-L1 adipocyte cells; test: Nile Red detection of lipid droplets (intensity, size, number) in adipocytes; format: cell-based
Procedure: The culture, the differentiation of 3T3-L1 cells, then the treatment with the compounds to be tested are performed as in example 2. The lipid detection is performed using Nile Red fluorescent stain, a phenoxazone that intensely labels the intracellular lipids. The color of the fluorescence observed is directly dependent upon the hydrophobicity of the surrounding medium. This specific property of Nile Red makes it possible to differentiate neutral lipids, labeled in gold-yellow, from phospholipids, labeled in red. […] The cells are examined with the fluorescence microscope. The quantification and statistical analysis are performed as in example 2.

[3] = with respect to untreated cells

## Cn1c(=O)c2c(ncn2C)n(C)c1=O [Caffeine, caffeine]
[1]
  increase in fluorescence (aquaglyceroporin 7 immunolabeling): 12.6%
[2]; differentiated 3T3-L1 cells
  Average droplet size: 109.55 μm^2
  Number of droplets: 219
[2]; differentiated 3T3-L1 cells, carob extract 1% 12 days, caffeine 2 mM 5 hours
  Intensity of the Nile Red labeling, Ratio: 180.47 Pixels/μm^2
[2]; with respect to the untreated cells
  intensity of the Nile Red labeling, size and number of droplets (in words): reduced
[2]; [3]
  Droplet size, % reduction: −17.40%
  Intensity of the Nile Red labeling, % reduction: −37.36%
  Number of droplets, % reduction: −18%

— patent US9962329B2, “Cosmetic use of the combination of a carob germ extract and caffeine as a slimming active agent” (ISP INVESTMENTS INC., priority 2012, dated 2018)
